Here are results for one compound from patent publication US20240299591A1, “Antimicrobial Peptides and Their Use” (priority 2021, published 2024).

The subject of one test is Fusarium oxysporum. The test is classed as cell-based. Conditions: 24 h.
For the next test, the system named is C. auris. The class given is cell-based. The method, then: (§1) Candida strains used were grown on SAB agar at 37° C. for 3 days, and the Cryptococcus strain was grown on SAB agar at 37° C. for 6 days. Cells were harvest using sterile inoculation loop by taking a single colony and resuspending in phosphate-buffered saline supplemented with 0.1% tween-20 (PBST). The concentration of cells was then quantified with a haemocytometer. For the determination of the minimum inhibitory concentration, cell density was adjusted to 10^6 cells/mL with 20% liquid Vogel's medium.

For test [1], the system named is C. inconspicua (ATCC 16783). The test is classed as cell-based. The method, then:
as §1

A further test deals with C. glabrata (NCPF 3309). The test is classed as cell-based. How it is done:
as §1

In another test the test system is C. krusei (ATCC 6258). The test is classed as cell-based. The method, then:
as §1

The next test has as its system C. albican. The class given is cell-based. How it is done:
as §1

The test system of the next test is F. oxysporum. Nature of the test: Minimum inhibitory concentration, F. oxysporum. The class given is cell-based, Fusarium oxysporum. Conditions: 5 × 10^5, 10% Vogel's. The method, then: F. oxysporum was grown in liquid potato dextrose broth (PDB) at 28° C. with shaking (170 rpm) for 5 days. The suspension was filtered through folded Miracloth (4 layers) and centrifuged for 10 min at RT. The supernatant was discard and the pellet was resuspend in 1.5 mL of sterile dH2O and quantified.

The subject of the next test is A. fumigatus (MFIG001). Kind of test: Minimum inhibitory concentration, A. fumigatus. The class given is cell-based, Aspergillus fumigatus. Conditions: 5 × 10^5, 10% Vogel's. The method, then: Aspergillus fumigatus strains were grown on Sabouraud dextrose agar (SAB agar) at 37° C. for 3 days. Conidia were collected in phosphate-buffered saline supplemented with 0.1% tween-20 (PBST) by gently scraping a spatula over the fungal colony surface. The spore solutions were then passed through autoclaved Miracloth to remove any hyphal residues and stored at 4° C. The spores were counted and the concentrations was determined in the same was as described for N. crassa.

The next test relates to S. aureus. The test is classed as cell-based, Staphylococcus aureus. The method, then: Bacteria strains used were grown on Lysogeny Broth (LB) agar at 37° C. for 1 day, and were harvest using sterile inoculation loop by taking a single colony and resuspending in PBST. The concentration of cells was quantified using a haemocytometer. For the determination of the minimum inhibitory concentration, cell density was adjusted to 10^8 cells/mL with 20% liquid LB medium.

In brackets after ≈: the same amount, converted by molar mass. Where a SMILES comes first, the peptide text is derived from it.

Regarding `N=C(N)NCCC[C@@H]1NC(=O)CNC(=O)[C@H](Cc2c[nH]c3ccccc23)NC(=O)[C@H](Cc2ccccc2)NC(=O)[C@H](Cc2c[nH]c3ccccc23)NC(=O)[C@@H](Cc2ccccc2)NC(=O)[C@H](CCCCN)NC(=O)[C@H](CCCCN)NC1=O` [MFIGAF001, Cyclo(Arg-Lys-Lys-phe-Trp-Phe-Trp-Gly)] (HELM PEPTIDE1{F.W.G.R.K.K.[dF].W}$PEPTIDE1,PEPTIDE1,1:R1-8:R2$$$V2.0), the “IC50 Fusarium oxysporum” value in the test with Fusarium oxysporum came out at 1.9 µg/mL (≈ 1.67 µM). For the same compound, the MIC against C. auris came out at 2 µM (≈ 2.27 µg/mL); in test [1], 2 µM (≈ 2.27 µg/mL); against C. glabrata (NCPF 3309), 3.9 µM (≈ 4.43 µg/mL); against C. krusei (ATCC 6258), 3.9 µM (≈ 4.43 µg/mL); with C. albican, 2 µM (≈ 2.27 µg/mL); with F. oxysporum, 6.25 µM (≈ 7.1 µg/mL). The values for the MIC against A. fumigatus (MFIG001) and against S. aureus were 5 µM (≈ 5.68 µg/mL) and 15.6 µM (≈ 17.7 µg/mL), respectively. In the test with S. aureus, the “Antibacterial activity against Staphylococcus aureus” value is “Antibacterial activity”.
